For one experiment, the target named is T1, HDAC2 (Homo sapiens, UniProt Q92769).
T1 construct: HDAC2 (full length, C-terminal His tag, BPS Bioscience, cat. #: 50002); purchased BPS Bioscience 50002
Description: Recombinant HDAC µSPOT microarray binding assay.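 Also: Cellulose-bound peptide spots on slides incubated with six HDAC enzyme concentrations, binding intensity read, four-parameter variable-slope fit, EC50 is enzyme concentration giving half-maximal binding, in HEPES buffer pH 7.4.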

Another experiment has as its target T2, HDAC8 (Homo sapiens, UniProt Q9BY41).
T2 construct: HDAC8 (full length, C-terminal His tag, BPS Bioscience, cat. #: 50008); purchased BPS Bioscience 50008
T2 sequence (Q9BY41 1-377): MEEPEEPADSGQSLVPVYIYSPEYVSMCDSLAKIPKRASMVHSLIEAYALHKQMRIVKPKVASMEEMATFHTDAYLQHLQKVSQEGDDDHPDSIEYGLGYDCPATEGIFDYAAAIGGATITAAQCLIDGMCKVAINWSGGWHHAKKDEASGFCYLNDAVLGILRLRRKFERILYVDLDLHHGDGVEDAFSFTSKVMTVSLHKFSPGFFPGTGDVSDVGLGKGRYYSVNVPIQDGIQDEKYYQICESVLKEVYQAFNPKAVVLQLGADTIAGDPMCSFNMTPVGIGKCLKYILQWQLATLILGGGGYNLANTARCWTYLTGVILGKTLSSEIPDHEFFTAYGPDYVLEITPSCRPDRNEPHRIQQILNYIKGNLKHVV
Description: HDAC inhibition assay (fluorogenic, Ac-Leu-Gly-Lys(Tfa)-AMC). As to conditions: for HDAC8 dose-response data (relative enzyme activity, replicate values), Fig. 6 + S. Fig. 10: two replicate columns per inhibitor; for HDAC8 dose-response data (relative enzyme activity), Fig. 6 + S. Fig. 10: duplicate columns. It is filed as biochemical.

[1] abbreviates: Inhibitor conc [M] -8.49485 (log).
Where [2] appears, read: Inhibitor conc [M] -9.19382 (log).
Where [3] appears, read: Inhibitor conc [M] given as -7.09691 (log).
Where [4] appears, read: Inhibitor conc [M] given as -7.79588 (log).
Where [5] appears, read: Inhibitor conc [M] given as -9.89279 (log).
The mark [6] stands for this setting: Inhibitor conc [M] given as -10.585 (log).

Molecules are shown by their SMILES. Values joined by “and” are separate entries in the source; they are usually repeats but may differ in a detail not shown here. Equal values may be shown once. Marks after values point to notes of the source that are not given here. Non-standard residues stand in square brackets, D forms with d. Residues, ends and D or L forms follow the SMILES beside them. *: point of attachment. Asu = N[C@@H](CCCCCC(=O)O)C(=O)O; NHOH = ON*

T1 sequence (Q92769 whole entry): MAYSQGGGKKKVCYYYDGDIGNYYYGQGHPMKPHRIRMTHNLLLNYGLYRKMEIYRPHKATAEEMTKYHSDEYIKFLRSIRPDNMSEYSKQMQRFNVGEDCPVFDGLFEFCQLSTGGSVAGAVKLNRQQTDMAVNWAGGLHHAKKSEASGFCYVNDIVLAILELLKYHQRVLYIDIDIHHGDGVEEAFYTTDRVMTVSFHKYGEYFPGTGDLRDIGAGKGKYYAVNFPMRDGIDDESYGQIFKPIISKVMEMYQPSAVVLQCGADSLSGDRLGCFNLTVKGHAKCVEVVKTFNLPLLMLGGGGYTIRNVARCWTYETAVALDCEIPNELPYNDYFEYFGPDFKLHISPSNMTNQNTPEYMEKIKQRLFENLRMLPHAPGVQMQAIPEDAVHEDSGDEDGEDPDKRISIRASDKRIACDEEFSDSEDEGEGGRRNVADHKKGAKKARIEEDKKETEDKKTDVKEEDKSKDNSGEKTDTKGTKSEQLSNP
Description for HDAC2: Experiments were performed twice, data were obtained with Array Analyze software (Active Motif), and data analysis and representation were performed with the GraphPad Prism 7 software. Outliers were curated manually and data were fitted to nonlinear regression [log(agonist) vs. response—variable slope (four parameters)]. […] Non-sigmoidal curves were denoted as not determined (N.D.) The pEC50 values were determined as the concentration of HDAC enzyme required for half-maximal binding signal.

By EC50 is commonly meant the concentration at which the effect is half-maximal. What is called Ki is a measure of affinity in units of concentration, obtained from inhibition or displacement. High values mean a looser hold on the target, low ones a stronger hold on the target. In the case of `CC(=O)N[C@@H](C)C(=O)N1CCC[C@H]1C(=O)N[C@@H](C)C(=O)N1CCC[C@H]1C(=O)N[C@@H](CCCCN)C(=O)N[C@@H](CCCCCC(=O)NO)C(=O)NCC(=O)N[C@@H](CO)C(=O)N[C@@H](CCCCN)C(=O)N[C@@H](CCCCN)C(=O)N[C@@H](C)C(=O)N[C@H](C(=O)N[C@H](C(=O)N[C@@H](CCCCN)C(=O)N[C@@H](C)C(=O)N[C@@H](CCC(N)=O)C(=O)N[C@@H](Cc1c[nH]c2ccccc12)C(N)=O)[C@@H](C)O)C(C)C` [10a] (Ac-APAPK[Asu](NHOH)GSKKAVTKAQW-NH2), on HDAC2, the EC50 was more than 25.1 nM. For the same compound, the Ki at HDAC8 worked out at 2240 ± 20 nM. The “HDAC8 dose-response data (relative enzyme activity, replicate values), Fig. 6 + S. Fig. 10” value on HDAC8 (setting [1]) was 108.857 and 102.18; on HDAC8 (setting [2]), 106.186 and 101.221; on HDAC8 (setting [3]), 102.611 and 104.497; on HDAC8 (setting [4]) it was 103.781 and 99.0423; at HDAC8 (setting [5]) it was 110.267 and 101.97. The “HDAC8 dose-response data (relative enzyme activity), Fig. 6 + S. Fig. 10” value on HDAC8 (Inhibitor conc [M] -3.60206) is 2.527 and 3.969; on HDAC8 (Inhibitor conc [M] -4.30103) it was 9.773 and 11.8218; on HDAC8 (Inhibitor conc [M] -5), 29.4256 and 37.404; on HDAC8 (Inhibitor conc [M] -5.69897) it was 62.2051 and 60.7878; at HDAC8 (Inhibitor conc [M] -6.39794), 91.1582 and 94.1836.
Turning to `CC(=O)N[C@@H](CC(C)C)C(=O)NCC(=O)N[C@@H](CCCCN)C(=O)NCC(=O)NCC(=O)N[C@@H](C)C(=O)N[C@@H](CCCCCC(=O)NO)C(=O)N[C@@H](CCCNC(=N)N)C(=O)N[C@@H](Cc1c[nH]cn1)C(=O)N[C@@H](CCCNC(=N)N)C(=O)N[C@@H](CCCCN)C(=O)N[C@H](C(=O)N[C@@H](CC(C)C)C(=O)N[C@@H](CCCNC(=N)N)C(=O)N[C@@H](CC(=O)O)C(=O)N[C@@H](CC(N)=O)C(=O)N[C@@H](Cc1c[nH]c2ccccc12)C(N)=O)C(C)C` [16a] (Ac-LGKGGA[Asu](NHOH)RHRKVLRDNW-NH2), the EC50 at HDAC2 was 1.45 nM. Further, the affinity on HDAC8 corresponds to a Ki of 3960 ± 30 nM. Also, the “HDAC8 dose-response data (relative enzyme activity, replicate values), Fig. 6 + S. Fig. 10” value at HDAC8 (setting [1]) is 105.989 and 103.599; at HDAC8 (setting [2]), 103.027 and 101.95; at HDAC8 (setting [3]), 102.108 and 99.2954; at HDAC8 (setting [4]), 104.22 and 100.942; on HDAC8 (setting [5]), 101.805 and 102.182; on HDAC8 (setting [6]), 101,084* and 101,486*. Moreover, the “HDAC8 dose-response data (relative enzyme activity), Fig. 6 + S. Fig. 10” value at HDAC8 (Inhibitor conc [M] -4.30103) is 9.568 and 11.2045; at HDAC8 (Inhibitor conc [M] -5) it was 36.7683 and 38.5294; at HDAC8 (Inhibitor conc [M] -5.69897), 76.0846 and 76.9796; at HDAC8 (Inhibitor conc [M] -6.39794), 95.2833 and 94.1446.
In the case of `CC(=O)NCC(=O)NCC(=O)N[C@@H](CCCCCC(=O)NO)C(=O)N[C@@H](C)C(=O)N[C@@H](CCCNC(=N)N)C(=O)N[C@@H](C)C(=O)N[C@@H](CCCCN)C(=O)N[C@@H](C)C(=O)N[C@@H](CCCCN)C(=O)N[C@H](C(=O)N[C@@H](CCCNC(=N)N)C(=O)N[C@@H](CO)C(=O)N[C@@H](CO)C(=O)N[C@@H](CCCNC(=N)N)C(=O)N[C@@H](C)C(=O)NCC(=O)N[C@@H](Cc1c[nH]c2ccccc12)C(N)=O)[C@@H](C)O` [9a] (Ac-GG[Asu](NHOH)ARAKAKTRSSRAGW-NH2), on HDAC2, the EC50 is 1.95 nM. In addition, the affinity on HDAC8 corresponds to a Ki of 5570 ± 130 nM. The “HDAC8 dose-response data (relative enzyme activity, replicate values), Fig. 6 + S. Fig. 10” value was 101.387 and 98.0647 on HDAC8 (setting [1]); 105.308 and 102.184 at HDAC8 (setting [2]); 100.377 and 94.2492 on HDAC8 (setting [3]); 101.512 and 95.1709 on HDAC8 (setting [4]); 102.446 and 100.014 at HDAC8 (setting [5]); 102,003* and 99,4628* at HDAC8 (setting [6]). The “HDAC8 dose-response data (relative enzyme activity), Fig. 6 + S. Fig. 10” value is 8.643 and 13.2074 on HDAC8 (Inhibitor conc [M] -4.30103); 41.9349 and 42.6215 on HDAC8 (Inhibitor conc [M] -5); 76.1615 and 76.0658 at HDAC8 (Inhibitor conc [M] -5.69897); 95.4429 and 93.9691 at HDAC8 (Inhibitor conc [M] -6.39794).
Take `CC(=O)N1CCC[C@H]1C(=O)N[C@@H](CCCNC(=N)N)C(=O)N[C@@H](CCCCN)C(=O)N[C@@H](CCC(N)=O)C(=O)N[C@@H](CC(C)C)C(=O)N[C@@H](C)C(=O)N[C@H](C(=O)N[C@@H](CCCCN)C(=O)N[C@@H](C)C(=O)N[C@@H](C)C(=O)N[C@@H](CCCNC(=N)N)C(=O)N[C@@H](CCCCCC(=O)NO)C(=O)N[C@@H](CO)C(=O)N[C@@H](C)C(=O)N1CCC[C@H]1C(=O)N[C@@H](C)C(=O)N[C@@H](Cc1c[nH]c2ccccc12)C(N)=O)[C@@H](C)O` [14a] (Ac-PRKQLATKAAR[Asu](NHOH)SAPAW-NH2): the EC50 at HDAC2 is 2.82 nM. At HDAC8, this compound came in with a Ki of 55 ± 0.7 nM. For the same compound, the “HDAC8 dose-response data (relative enzyme activity, replicate values), Fig. 6 + S. Fig. 10” value at HDAC8 (setting [1]) is 89.9056 and 98.262; at HDAC8 (setting [2]) it was 96.4725 and 98.8615; on HDAC8 (setting [3]) it was 43.1119 and 55.3592; at HDAC8 (setting [4]) it was 72.8593 and 80.9184; at HDAC8 (setting [5]), 99.4729 and 100.504. The “HDAC8 dose-response data (relative enzyme activity), Fig. 6 + S. Fig. 10” value at HDAC8 (Inhibitor conc [M] -4.30103) was 2.477 and 2.544; at HDAC8 (Inhibitor conc [M] -5) it was 8.237 and 8.756; on HDAC8 (Inhibitor conc [M] -5.69897), 16.1631 and 21.2375; at HDAC8 (Inhibitor conc [M] -6.39794), 27.7385 and 36.3881. Further, on HDAC8 (in solution), the “HDAC8 inhibition in words” value was “robust nanomolar potency”.

For the origin of these results see paper PMC7782793, “Hydroxamic acid-modified peptide microarrays for profiling isozyme-selective interactions and inhibition of histone deacetylases” (Nature Communications, 2021).
